Blank lines part the entries; values can stand above or below the molecule they belong to.
Assays:
human SGLT1 = target: T1, human SGLT1 (Homo sapiens, UniProt P13866); test: SGLT1 in vitro assay: Na-dependent 14C-AMG uptake in CHO-K1 cells stably expressing human SGLT1; assay type: cell-based; conditions: CHO-K1 cells stably expressing human SGLT1, 14C-AMG uptake; for inhibition at 0.3 µM: read-out: SGLT1 % Inh @ 0.3 μM; for IC50: compounds of formula (I) where R0 is fluoro
T1 construct: expressed in transfected cells
T1 sequence (P13866 1-664): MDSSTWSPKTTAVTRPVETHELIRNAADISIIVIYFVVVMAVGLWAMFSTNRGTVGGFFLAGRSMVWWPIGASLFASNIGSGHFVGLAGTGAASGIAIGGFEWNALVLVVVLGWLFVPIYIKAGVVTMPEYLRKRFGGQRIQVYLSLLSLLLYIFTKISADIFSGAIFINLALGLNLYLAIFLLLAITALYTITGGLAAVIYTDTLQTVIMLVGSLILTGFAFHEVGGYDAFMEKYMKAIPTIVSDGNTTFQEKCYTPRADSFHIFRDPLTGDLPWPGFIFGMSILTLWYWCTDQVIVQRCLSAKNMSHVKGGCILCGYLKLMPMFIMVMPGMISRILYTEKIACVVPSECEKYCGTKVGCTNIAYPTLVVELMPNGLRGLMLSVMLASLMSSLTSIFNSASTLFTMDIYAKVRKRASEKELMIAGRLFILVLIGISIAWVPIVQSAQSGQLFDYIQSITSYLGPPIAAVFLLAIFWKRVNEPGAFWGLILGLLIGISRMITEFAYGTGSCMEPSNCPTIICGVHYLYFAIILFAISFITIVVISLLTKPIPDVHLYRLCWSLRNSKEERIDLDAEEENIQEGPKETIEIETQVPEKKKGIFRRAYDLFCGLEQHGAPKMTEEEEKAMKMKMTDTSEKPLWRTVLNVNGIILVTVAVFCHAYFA
How it was run: (§1)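 CHO-K1 cells stably expressing human SGLT1 or SGLT2, induced with 10 mM Na-butyrate for 24 h. Compounds (0.001–10 μM) in Na+-containing HEPES/Tris buffer pH 7.4 were applied for 10 min, then 14C-AMG ([…]) for 2 h at 37°C; Na-dependent uptake read by scintillation; %-inhibition or IC50.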

human SGLT2 = target: T2, human SGLT2 (Homo sapiens, UniProt P31639); test: SGLT2 in vitro assay: Na-dependent 14C-AMG uptake in CHO-K1 cells stably expressing human SGLT2; assay type: cell-based; conditions: CHO-K1 cells stably expressing human SGLT2, 14C-AMG uptake; for inhibition at 0.3 µM: read-out: SGLT2 % Inh @ 0.3 μM; for IC50: compounds of formula (I) where R0 is fluoro
T2 construct: expressed in transfected cells
T2 sequence (P31639 1-672): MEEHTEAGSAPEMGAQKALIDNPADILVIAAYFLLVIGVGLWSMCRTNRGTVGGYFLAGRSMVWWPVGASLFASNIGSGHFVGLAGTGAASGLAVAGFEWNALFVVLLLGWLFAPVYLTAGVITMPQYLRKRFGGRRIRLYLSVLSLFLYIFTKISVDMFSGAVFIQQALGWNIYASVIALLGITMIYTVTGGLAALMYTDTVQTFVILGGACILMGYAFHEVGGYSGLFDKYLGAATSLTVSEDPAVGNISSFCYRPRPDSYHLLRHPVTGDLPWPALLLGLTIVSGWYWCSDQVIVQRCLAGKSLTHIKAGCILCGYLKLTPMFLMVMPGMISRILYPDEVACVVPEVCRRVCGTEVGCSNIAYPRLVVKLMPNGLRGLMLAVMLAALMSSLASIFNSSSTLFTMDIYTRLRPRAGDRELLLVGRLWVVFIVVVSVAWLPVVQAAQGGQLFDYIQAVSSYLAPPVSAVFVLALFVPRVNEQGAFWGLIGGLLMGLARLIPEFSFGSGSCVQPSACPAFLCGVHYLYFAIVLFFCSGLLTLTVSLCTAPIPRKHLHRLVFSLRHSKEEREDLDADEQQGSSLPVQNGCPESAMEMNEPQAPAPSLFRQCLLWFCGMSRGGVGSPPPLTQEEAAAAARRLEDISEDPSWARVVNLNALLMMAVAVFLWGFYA
How it was run: as §1

SMILES: COc1cc(Cl)c(Cc2ccc(C)cc2)cc1[C@@H]1O[C@H](CO)C(F)(F)[C@H](O)[C@H]1O [Compound 176]
inhibition at 0.3 µM (human SGLT1): 52% | IC50 (human SGLT1): 105 nM | inhibition at 0.3 µM (human SGLT2): 90.6% | IC50 (human SGLT2): 1.7 nM

SMILES: Cc1ccc(Cc2cc([C@@H]3O[C@H](CO)C(F)(F)[C@H](O)[C@H]3O)c(O)cc2C)cc1F [Compound 177]
inhibition at 0.3 µM (human SGLT1): 79.6% | IC50 (human SGLT1): 13 nM | inhibition at 0.3 µM (human SGLT2): 87.8% | IC50 (human SGLT2): 3.1 nM

SMILES: CN(C)c1ccc(Cc2cc([C@@H]3O[C@H](CO)C(F)(F)[C@H](O)[C@H]3O)cc3c2OCC3)cc1 [Compound 179]
SGLT1 % Inh @ 0.3 μM (human SGLT1): 24.9% | SGLT2 % Inh @ 0.3 μM (human SGLT2): 62.1%

SMILES: CCc1csc(Cc2cc([C@@H]3O[C@H](CO)C(F)(F)[C@H](O)[C@H]3O)c(O)cc2C)c1 [Compound 182]
inhibition at 0.3 µM (human SGLT1): 60.2% | IC50 (human SGLT1): 40 nM | inhibition at 0.3 µM (human SGLT2): 83.6% | IC50 (human SGLT2): 1.3 nM

SMILES: COc1c([C@@H]2O[C@H](CO)C(F)(F)[C@H](O)[C@H]2O)cc(Cc2ccc(C3CC3)cc2)c2c1CCO2 [Compound 183]
SGLT1 % Inh @ 0.3 μM (human SGLT1): 39.3% | SGLT2 % Inh @ 0.3 μM (human SGLT2): 87.4%

SMILES: COc1c([C@@H]2O[C@H](CO)C(F)(F)[C@H](O)[C@H]2O)cc(Cc2ccc(OCF)cc2)c2c1CCO2 [Compound 184]
SGLT1 % Inh @ 0.3 μM (human SGLT1): 24.7% | SGLT2 % Inh @ 0.3 μM (human SGLT2): 73.2%

The next lines start with the values.

SGLT1 % Inh @ 0.3 μM (human SGLT1): 25.4% | SGLT2 % Inh @ 0.3 μM (human SGLT2): 65.3%
SMILES: COc1c([C@@H]2O[C@H](CO)C(F)(F)[C@H](O)[C@H]2O)cc(Cc2ccc(N(C)C)cc2)c2c1CCO2 [Compound 185]

inhibition at 0.3 µM (human SGLT1): 52.7% | IC50 (human SGLT1): 160 nM | inhibition at 0.3 µM (human SGLT2): 74.6% | IC50 (human SGLT2): 35.9 nM
SMILES: OC[C@H]1O[C@@H](c2cc(Cc3ccc4c(c3)OCCO4)c3c(c2O)OCC3)[C@H](O)[C@@H](O)C1(F)F [Compound 187]

SGLT1 % Inh @ 0.3 μM (human SGLT1): 21.6% | SGLT2 % Inh @ 0.3 μM (human SGLT2): 60.1%
SMILES: OC[C@H]1O[C@@H](c2cc(Cc3ccc4c(c3)OCCO4)c(Cl)c3c2CCO3)[C@H](O)[C@@H](O)C1(F)F [Compound 188]

inhibition at 0.3 µM (human SGLT1): 49.9% | IC50 (human SGLT1): 779 nM | inhibition at 0.3 µM (human SGLT2): 85.7% | IC50 (human SGLT2): 108 nM
SMILES: [2H]C([2H])(c1ccc2c(c1)OCCO2)c1cc([C@@H]2O[C@H](CO)C(F)(F)[C@H](O)[C@H]2O)ccc1CC [Compound 192]
